Results as given in BindingDB's records for doi:10.7270/Q2WS8WDS (n/a, 1995).
pIC50: −log10 of the molar value.

Target: T1, Protein kinase C zeta type (Rattus norvegicus, UniProt P09217)
T1 sequence (P09217 whole entry): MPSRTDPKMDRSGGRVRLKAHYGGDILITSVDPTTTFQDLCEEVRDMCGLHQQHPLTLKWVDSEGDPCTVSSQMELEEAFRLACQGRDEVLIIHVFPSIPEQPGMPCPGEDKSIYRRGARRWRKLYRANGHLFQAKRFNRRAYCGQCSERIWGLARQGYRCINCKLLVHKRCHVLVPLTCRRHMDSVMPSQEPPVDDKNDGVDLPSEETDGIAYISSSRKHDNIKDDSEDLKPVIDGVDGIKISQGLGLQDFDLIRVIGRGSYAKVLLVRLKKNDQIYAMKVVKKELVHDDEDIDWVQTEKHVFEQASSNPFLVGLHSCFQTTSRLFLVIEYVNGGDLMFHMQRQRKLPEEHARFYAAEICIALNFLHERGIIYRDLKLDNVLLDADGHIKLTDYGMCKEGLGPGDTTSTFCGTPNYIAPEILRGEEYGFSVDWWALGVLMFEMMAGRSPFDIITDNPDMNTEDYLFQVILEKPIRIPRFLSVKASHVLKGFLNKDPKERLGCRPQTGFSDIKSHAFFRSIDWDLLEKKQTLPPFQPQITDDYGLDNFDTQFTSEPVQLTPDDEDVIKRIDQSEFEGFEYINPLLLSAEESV
Experiment: Inhibition of Protein kinase C isolated from rat brain

pIC50	Structure (SMILES)
4.65	CCCCCCCCCCC#Cc1cccc([C@@H](O)[C@@H](N)CO)c1
4.63	CCCCCCCCCCCCC/C=C/[C@@H](O)[C@@H](N)CO [(E,2S,3R)-2-azanyloctadec-4-ene-1,3-diol]
